The test system of the assay is P. falciparum 3D7 growth, pLDH absorbance. Description: P. falciparum 3D7 growth inhibition, dose response, strain 3D7 (AID 2305).

Each structure is given as a SMILES string. pIC50: −log10 of the molar value. Several values for one entry are separate records, joined by “and”; a condition that tells them apart may be missing. Equal values may be shown once.

By pIC50 is commonly meant −log10 of the IC50, conventionally taken in molar units. Higher therefore signals a small IC50.

`CCOc1ccc(NC(C)=O)c(O)c1` had a pIC50 of 6.08. Then `NC(=NCc1ccccc1Cl)NCCc1c[nH]c2ccccc12`, with 6.96; and `O=c1cc(NCCCNCc2cc(Cl)c(Cl)cc2Cl)[nH]c2ccccc12`, with 6.01.

`COc1cc2nc(N3CCC(CNC(=O)c4ccc(-c5ccc(O)cc5)cc4)CC3)nc(N)c2cc1OC` gave a pIC50 of 6.77. As for `CC(Cc1ccc(SCCSc2ccccc2)cc1)NCC(O)c1cccc(Cl)c1` (configuration not stated), the figure is 6.43; as for `NCC1CCCN1Cc1ccc(-c2ccc(-c3nc4ccc(C(F)(F)F)cc4[nH]3)s2)cc1` (configuration not stated), 6.10; as for `Oc1ccc(CCNc2nc(NCc3ccccc3-c3cccc(Cl)c3)nc(N3CCNCC3)n2)cc1`, 5.89. Then `CCCCNC(=O)[C@H](CC1CCCCC1)NC(=O)c1ccc(O)c(-c2cccc(C(F)(F)F)c2)c1`, with 6.11; and `COc1ccc2c(NN=Cc3ccc(F)cc3)cc(C)nc2c1`, with 6.11; and `COc1cc2ccccc2c(CNCCCCCCNCc2c(OC)c(OC)cc3ccccc23)c1OC`, with 5.95. As for `O=C(CSc1n[nH]c(=O)n1Cc1ccccc1)Nc1ccccc1-c1ccccc1`, the figure is 6.02; as for `O=C(NCCN1CCCCC1)N1CCCN(c2ncnc3cc(-c4ccccc4)sc23)CC1`, 6.64. Compound `Cc1ccc(-n2c(Cc3cccc4ccccc34)nnc2SCCC#N)c(C)c1` gave a pIC50 of 6.34. As for `O=S(=O)(c1cccc(C(F)(F)F)c1)N1CCC(CO)(Cc2cccc(C(F)(F)F)c2)CC1`, the figure is 6.02; as for `COc1ccccc1C(=O)N1CCN(Cc2cccs2)CC1`, 6.06. Then `Cc1cccc2[nH]c(-c3ccc(-c4ccc(NC(=O)Nc5cccc(C#N)c5)cc4)cc3)nc12`, with 6.96; and `Clc1cc(Nc2ncnc3cc(C#C[C@H]4CCCN4)sc23)cc2[nH]c(Cc3ccccc3)nc12`, with 6.07. Then `COc1ccc2c(NCCc3ccccc3)cc(-c3ccccc3)nc2c1`, with 6.00; and `Cc1noc(C)c1-c1ccc2c(Nc3ccccc3N3CCOCC3)c(C(=O)NCc3ccccc3)cnc2c1`, with 5.93. As for `CCOC(=O)c1cccc(NC(=O)Nc2cc(C)nc3ccccc23)c1`, the pIC50 is 6.54. As for `CN(C)CCCOc1ccc(CN2CC[C@H](NC(=O)c3ccc(Cl)c(Cl)c3)C2)cc1Br`, the figure is 6.12.

For the compound `C=C(C)C1CC=C(CN2CCC(N3CCc4cc(NC(=O)c5cc(C)on5)ccc43)C2)CC1` (configuration not stated), the pIC50 was 6.15.

As to `CN1CCN(S(=O)(=O)c2cccc(Nc3nccc(N(C)c4ccc5c(c4)nc(NC(=O)c4cccs4)n5C)n3)c2)CC1`, the pIC50 is 6.12. As for `Cc1ccc(-c2nnc(Nc3ccc(C(=O)N4CCCCC4)cc3)c3ccccc23)cc1S(=O)(=O)NCC1CCCO1` (configuration not stated), the figure is 6.15.

On to `Cc1ccc(CNC(=O)c2cc3c(=O)n4ccccc4nc3n(CCCN3CCOCC3)c2=N)cc1`, for which the pIC50 is 5.96. `Cc1cccc2[nH]c(-c3ccc(-c4ccc(CN5CCC(C(N)=O)CC5)cc4)s3)nc12` had a pIC50 of 6.04. For `CC(C)(C)c1ccc(CN2CCC(CNC(=O)c3cc(-c4ccccc4F)cs3)C2)cc1` (configuration not stated), the pIC50 is 6.25. Then `O=C(/C=C/c1ccc(Cl)c(Cl)c1)NCCCCCN1CCC(C(=O)Nc2ccc3c(c2)OCO3)CC1`, with 6.08; and `CCOc1ccccc1CNc1nccc(NCCc2cn(C)c3ccccc23)n1`, with 5.90.

Take `CCN1CCC(N(Cc2ccc(-c3ccc(C(F)(F)F)cc3)cc2)C(=O)Cn2c(CCc3cccc(F)c3F)cc(=O)c3c2CCCC3)CC1`: the pIC50 is 6.12. As for `c1ccc(CCNc2ccnc(Nc3ccc4n[nH]nc4c3)n2)cc1`, the figure is 6.07; as for `COc1ccccc1C(C)NCC(=O)Nc1ccccc1Sc1ccccc1` (configuration not stated), 5.96. In turn, `CN1CCCC(CN2CCN(Cc3cccc(-c4ccc(-c5nc6ccccc6[nH]5)cc4)c3)CC2)C1` (configuration not stated) showed a pIC50 of 6.80. Then `Fc1ccc2nc(-c3cccc(-c4cccc(CNCCN5CCNCC5)c4)c3)[nH]c2c1`, with 6.08; and `CC(C)N1CCN(C(CN2CCN(CCCOc3cccc(F)c3)CC2)c2ccc(F)cc2)CC1` (configuration not stated), with 6.04. Compound `CCCCn1c(-c2ccco2)nc2c(c(=O)c3ccccc3n2C)c1=O` gave a pIC50 of 5.91.

In turn, `CCOc1ccc2c(NN=Cc3cccc(OC)c3OC)cc(C)nc2c1` gave a pIC50 of 6.05. Then `CC(C)(C)c1nn(-c2ccccc2)c2[nH]c(=O)c(CNCc3ccc4c(c3)OCO4)cc12`, with 5.98; and `COc1ccc2nccc(CCC3(O)CCC(NCc4cc5c(cc4F)SCC(=O)N5)CC3)c2c1` (configuration not stated), with 6.17. Then `O=c1cc(NCCCNCc2cc(Br)ccc2F)[nH]c2ccccc12`, with 6.07.

In turn, `Cc1ccccc1N1CCN(c2ccc(C(=O)Nc3ccccc3)cn2)CC1` had a pIC50 of 6.23.

The compound `O=C(/C=C/c1ccc(Cl)c(Cl)c1)NCCCCCN1CCN(C(=O)Nc2ccc(Cl)c(C(F)(F)F)c2)CC1` had a pIC50 of 6.09.

Compound `Cc1c(C)c2c(c(C)c1O)CC[C@](C)(C(=O)N1CCC(CN3CCC(c4c[nH]c5ccccc45)CC3)CC1)O2` showed a pIC50 of 6.14. Then `O=C(/C=C/c1ccc(Cl)c(Cl)c1)N1CCC(CCN2CCC(c3c[nH]c4ccncc34)CC2)CC1`, with 5.94. Then `CCN(C)CCCn1c(N(C)C)nc2cc(-n3cnc4cc(-c5ccc(Cl)cc5)sc4c3=O)ccc21`, with 5.96. With `CSC1=NC(=Nc2c(C)cccc2C)C2(CCC(C(C)(C)C)CC2)N1c1ccc(O)cc1` (configuration not stated), the pIC50 was 6.60. Then `O=C(Nc1ccccc1)Nc1cccc(-c2nn3c(OCCN4CCCC4)cccc3c2-c2ccncc2)c1`, with 6.40; and `COc1ccc2nccc([C@@H](O)CN3CCC(NCc4cc5c(Cl)cccc5[nH]4)CC3)c2c1`, with 6.80.

With `CCOC(=O)c1ccc(N2CCN(CCCNC(=O)/C(=C/C=C/c3cc4cc(Cl)c(Cl)cc4[nH]3)OC)CC2)cc1`, the pIC50 was 6.07. `COc1ccc2c(NN=Cc3cccnc3)cc(C)nc2c1` gave a pIC50 of 6.00. As for `CC1(CCCCN2CCC(c3c[nH]c4cnccc34)CC2)C(=O)Nc2cccc(Cl)c21` (configuration not stated), the figure is 6.06; as for `Cc1c(-c2cccc(NC(=O)C(C)(C)Oc3ccc(Cl)cc3)c2)nc2ncccn12`, 6.77. Then `CC(C)c1ccc(NC(=O)c2ccc(CN3CCCN(Cc4cccc(O)c4)CC3)cc2)cc1`, with 6.17; and `Cn1c2c(c3ccccc31)CN(CCC1(c3ccc(Cl)c(Cl)c3)CN(C(=O)Cc3ccccc3)CCO1)CC2` (configuration not stated), with 6.44.

As for `c1ccc(CNCc2cccc(-c3cccc(-c4nc5ccccc5[nH]4)c3)c2)cc1`, the pIC50 is 6.24. As for `Cc1ccccc1C1CCN(c2ncc(C(=O)Nc3ccccc3)cc2Cl)CC1`, the figure is 6.00; as for `Cc1ccc2c(Cl)c(C(=O)N3CC(C)OC(C)C3)sc2c1` (configuration not stated), 6.74; as for `CN(C)CCN1CCN(CCCN2c3ccccc3Sc3ccc(C(F)(F)F)cc32)CC1`, 6.12.

On to `Cc1[nH]c2cccc(F)c2c(=O)c1Cc1ccc(Cl)cc1` (tested in a mixture with another compound), for which the pIC50 was 6.64 and 6.46. Then `N#CCCN1CCN(Cc2cccc(-c3ccc(-c4nc5ccc(F)cc5[nH]4)cc3)c2)CC1`, with 6.22; and `CCN(CC)C(=NCCCCCCN=C(NC(N)=NCc1cccc(Cl)c1)N(CC)CC)NC(N)=NCc1cccc(Cl)c1`, with 6.68; and `CCCCCN1CCCC1CNS(=O)(=O)c1ccc(C(=O)Nc2cccc(C(F)(F)F)c2)cc1` (configuration not stated), with 5.97.

The record behind these values is PubChem BioAssay AID2305 (GlaxoSmithKline (GSK), 2010).
